Laboratory results from PubChem BioAssay AID2060907 (Molecular Pharmacology Branch, DTP, NCI, 2025).

Test system: 388556-164-R-J1-PDC complex spheroid viability
Assay: Anticancer human tumor 388556-164-R-J1-PDC patient-derived colon adenocarcinoma cell line growth inhibition [RAS]
Settings: for IC50: curve of first compound; for viability, T/C: stronger effect = lower value
Summary of the method: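 Agents were tested in combination matrices in half-log decrements from a top concentration at or near clinical Cmax (10 microM if undetermined). Targets were multi-cell spheroids of tumour lines plus HUVEC and MSC stromal cells.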

[1] = second compound 0.00316 µM, first compound 0.0316 µM
[2] = second compound 0.00316 µM, first compound 0.1 µM
[3] = second compound 0.00316 µM, first compound 0.316 µM
[4] = second compound 0.00316 µM, first compound 1 µM
[5] = second compound 0.00316 µM, first compound 3.16 µM
[6] = second compound 0.00316 µM, first compound 10 µM
[7] = second compound 0.01 µM, first compound 0.0316 µM
[8] = second compound 0.01 µM, first compound 0.1 µM
[9] = second compound 0.01 µM, first compound 0.316 µM
[10] = second compound 0.01 µM, first compound 1 µM
[11] = second compound 0.01 µM, first compound 3.16 µM
[12] = second compound 0.01 µM, first compound 10 µM
[13] = second compound 0.0316 µM, first compound 0.0316 µM
[14] = second compound 0.0316 µM, first compound 0.1 µM
[15] = second compound 0.0316 µM, first compound 0.316 µM
[16] = second compound 0.0316 µM, first compound 1 µM
[17] = second compound 0.0316 µM, first compound 3.16 µM
[18] = second compound 0.0316 µM, first compound 10 µM
[19] = second compound 0.1 µM, first compound 0.0316 µM
[20] = second compound 0.1 µM, first compound 0.1 µM
[21] = second compound 0.1 µM, first compound 0.316 µM
[22] = second compound 0.1 µM, first compound 1 µM
[23] = second compound 0.1 µM, first compound 3.16 µM
[24] = second compound 0.1 µM, first compound 10 µM
[25] = second compound 0.316 µM, first compound 0.0316 µM
[26] = second compound 0.316 µM, first compound 0.1 µM
[27] = second compound 0.316 µM, first compound 0.316 µM
[28] = second compound 0.316 µM, first compound 1 µM
[29] = second compound 0.316 µM, first compound 3.16 µM
[30] = second compound 0.316 µM, first compound 10 µM
[31] = second compound 1 µM, first compound 0.0316 µM
[32] = second compound 1 µM, first compound 0.1 µM
[33] = second compound 1 µM, first compound 0.316 µM
[34] = second compound 1 µM, first compound 1 µM
[35] = second compound 1 µM, first compound 3.16 µM
[36] = second compound 1 µM, first compound 10 µM
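Note: spheroids exposed to compound for 7 days before readout.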
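Throughout, for viability, T/C: 100% = DMSO vehicle control luminescence.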

`Cc1nc(N2CCC3(CC2)COC(C)C3N)c(CO)nc1Sc1ccnc(N)c1Cl` (stereo unspecified) + C=CC(=O)N1CCN(c2nc(OCC3CCCN3C)nc3c(F)c(-c4nc(N)cc(C)c4C(F)(F)F)c(Cl)cc23)C(C)C1 gave an IC50 (second compound 0.00316 µM) of 2820 nM, an IC50 (second compound 0.01 µM) of 3770 nM and an IC50 (second compound 0.0316 µM) of 6520 nM. For the same compound, the IC50 (second compound 0.1 µM) was 3060 nM, the IC50 (second compound 0.316 µM) was 3340 nM and the IC50 (second compound 1 µM) was 1520 nM. It also gave a viability, T/C [1] of 88.3%, a viability, T/C [2] of 83.7% and a viability, T/C [3] of 72.8%. It also gave a viability, T/C [4] of 58.3%, a viability, T/C [5] of 49.2% and a viability, T/C [6] of 45.3%. The viability, T/C [7] was 94.7%, the viability, T/C [8] was 82.4% and the viability, T/C [9] was 75.7%. For the same compound, the viability, T/C [10] was 61.7%, the viability, T/C [11] was 49.7% and the viability, T/C [12] was 43.7%. For the same compound, the viability, T/C [13] was 86.1%, the viability, T/C [14] was 79.9% and the viability, T/C [15] was 73.3%. For the same compound, the viability, T/C [16] was 63.3%, the viability, T/C [17] was 55.3% and the viability, T/C [18] was 47%. For the same compound, the viability, T/C [19] was 95.5%, the viability, T/C [20] was 83.5% and the viability, T/C [21] was 70.5%. It also gave a viability, T/C [22] of 60.9%, a viability, T/C [23] of 49.6% and a viability, T/C [24] of 40.6%. The viability, T/C [25] was 97.7%, the viability, T/C [26] was 78% and the viability, T/C [27] was 70.9%. The viability, T/C [28] was 63.8%, the viability, T/C [29] was 54.1% and the viability, T/C [30] was 36.9%. It also gave a viability, T/C [31] of 91.2%, a viability, T/C [32] of 92.5% and a viability, T/C [33] of 68.5%. For the same compound, the viability, T/C [34] was 56.7%, the viability, T/C [35] was 42.3% and the viability, T/C [36] was 39.8%.
Compound `NC1c2ccccc2OC12CCN(c1cnc3c(N4CCCc5ncccc54)n[nH]c3n1)CC2` (stereo unspecified) + C=CC(=O)N1CCN(c2nc(OCC3CCCN3C)nc3c(F)c(-c4nc(N)cc(C)c4C(F)(F)F)c(Cl)cc23)C(C)C1 has an IC50 (second compound 0.00316 µM) of 180 nM, an IC50 (second compound 0.01 µM) of 152 nM and an IC50 (second compound 0.0316 µM) of 165 nM. It also gave an IC50 (second compound 0.1 µM) of 230 nM, an IC50 (second compound 0.316 µM) of 190 nM and an IC50 (second compound 1 µM) of 240 nM. The viability, T/C [1] was 63.9%, the viability, T/C [2] was 55.6% and the viability, T/C [3] was 45.8%. The viability, T/C [4] was 39.4%, the viability, T/C [5] was 44.6% and the viability, T/C [6] was 38.8%. The viability, T/C [7] was 67.4%, the viability, T/C [8] was 55.4% and the viability, T/C [9] was 39.1%. The viability, T/C [10] was 39.7%, the viability, T/C [11] was 44.2% and the viability, T/C [12] was 38.8%. The viability, T/C [13] was 71.1%, the viability, T/C [14] was 54.1% and the viability, T/C [15] was 44.1%. It also gave a viability, T/C [16] of 38.7%, a viability, T/C [17] of 39.8% and a viability, T/C [18] of 32.9%. For the same compound, the viability, T/C [19] was 70%, the viability, T/C [20] was 59.5% and the viability, T/C [21] was 45.7%. The viability, T/C [22] was 40.5%, the viability, T/C [23] was 40.1% and the viability, T/C [24] was 35.6%. For the same compound, the viability, T/C [25] was 69.2%, the viability, T/C [26] was 54.6% and the viability, T/C [27] was 45.3%. For the same compound, the viability, T/C [28] was 41.8%, the viability, T/C [29] was 40.6% and the viability, T/C [30] was 35.5%. For the same compound, the viability, T/C [31] was 70.3%, the viability, T/C [32] was 58.3% and the viability, T/C [33] was 45.9%. It also gave a viability, T/C [34] of 40%, a viability, T/C [35] of 34.4% and a viability, T/C [36] of 28.1%.
With `CCN1CCN(Cc2ccc(Nc3ncc(F)c(-c4cc(F)c5nc(C)n(C(C)C)c5c4)n3)nc2)CC1` + C#Cc1c(F)ccc2cc(O)cc(-c3ncc4c(N5CC6CCC(C5)N6)nc(OCC56CCCN5CC(F)C6)nc4c3F)c12 the IC50 (second compound 0.0316 µM) was > 1000 nM, the IC50 (second compound 0.1 µM) was > 1000 nM and the IC50 (second compound 0.316 µM) was > 1000 nM. For the same compound, the IC50 (second compound 1 µM) was > 1000 nM, the IC50 (second compound 3.16 µM) was > 1000 nM and the IC50 (second compound 10 µM) was 208 nM. It also gave a viability, T/C (second compound 0.0316 µM, first compound 0.00316 µM) of 106%, a viability, T/C (second compound 0.0316 µM, first compound 0.01 µM) of 106% and a viability, T/C [13] of 106%. For the same compound, the viability, T/C [14] was 103%, the viability, T/C [15] was 92.3% and the viability, T/C [16] was 103%. For the same compound, the viability, T/C (second compound 0.1 µM, first compound 0.00316 µM) was 110%, the viability, T/C (second compound 0.1 µM, first compound 0.01 µM) was 100% and the viability, T/C [19] was 94.8%. It also gave a viability, T/C [20] of 89.2%, a viability, T/C [21] of 91.6% and a viability, T/C [22] of 99.5%. It also gave a viability, T/C (second compound 0.316 µM, first compound 0.00316 µM) of 100%, a viability, T/C (second compound 0.316 µM, first compound 0.01 µM) of 99.2% and a viability, T/C [25] of 81.1%. It also gave a viability, T/C [26] of 88%, a viability, T/C [27] of 93.3% and a viability, T/C [28] of 77.4%. It also gave a viability, T/C (second compound 1 µM, first compound 0.00316 µM) of 92.5%, a viability, T/C (second compound 1 µM, first compound 0.01 µM) of 96.3% and a viability, T/C [31] of 73.2%. It also gave a viability, T/C [32] of 82.5%, a viability, T/C [33] of 85.6% and a viability, T/C [34] of 61.6%. The viability, T/C (second compound 3.16 µM, first compound 0.00316 µM) was 78.3%, the viability, T/C (second compound 3.16 µM, first compound 0.01 µM) was 73.9% and the viability, T/C (second compound 3.16 µM, first compound 0.0316 µM) was 76.3%. It also gave a viability, T/C (second compound 3.16 µM, first compound 0.1 µM) of 74.3%, a viability, T/C (second compound 3.16 µM, first compound 0.316 µM) of 71% and a viability, T/C (second compound 3.16 µM, first compound 1 µM) of 54.9%. The viability, T/C (second compound 10 µM, first compound 0.00316 µM) was 76.8%, the viability, T/C (second compound 10 µM, first compound 0.01 µM) was 67.8% and the viability, T/C (second compound 10 µM, first compound 0.0316 µM) was 72.7%. It also gave a viability, T/C (second compound 10 µM, first compound 0.1 µM) of 57.7%, a viability, T/C (second compound 10 µM, first compound 0.316 µM) of 45.5% and a viability, T/C (second compound 10 µM, first compound 1 µM) of 37.4%.
